Measurements reported in patent US20250122191A1, “COMPOUNDS AS BCL-2 INHIBITORS” (Fochon Biosciences, Ltd, priority 2021, published 2025).
Read-outs that look alike come from different tables or passages of the source.

Assays:
Format in all cases: cell-based
[1] = tested on: RS4;11-BCL-2 F104L cells; experiment: Cell proliferation assay (MTS), RS4;11-BCL-2 F104L engineered cells; conditions: 120 h, read-out: RS4, 11 BCL2-F104L IC50
Source text: MTS testing kit was purchased from Promega (Madison, WI, USA). The RPMI-1640, Fetal bovine serum and Penicillin-Streptomycin were purchased from BI (Biological Industries, Beit Haemek, Israel). Puromycin was purchased from Beyotime (shanghai, China). Dimethyl sulfoxide (DMSO) was purchased from Sigma (St. Louis., MO, USA). RS4;11-BCL-2 G101V (Cobioer Lot. #: CBD2021063013P4), RS4;11-BCL-2 D103E (Cobioer Lot. #: CBD2021063013P4), RS4;11-BCL-2 D103Y (Cobioer Lot. #: CBD2022012101P4) and RS4;11-BCL-2 F104L (Cobioer Lot. #: CBD2021063014P4) cells were cultured in RPMI1640 supplemented with 1 ug/mL puromycin, 100 U/mL Penicillin-Streptomycin and 10% FBS.
To investigate whether a compound is able to inhibit the activity of BCL-2 mutation in cells, a mechanism-based assay using engineered cell lines stably overexpressing BCL-2 mutation (RS4;11-BCL-2 G101V, RS4;11-BCL-2 D103E, RS4;11-BCL-2 D103Y, and RS4;11-BCL-2 F104L) was developed. In this assay, the inhibition of BCL-2 mutation was reflected by the inhibition of cell proliferation of engineered RS4;11 cells. Cells were plated into 96-well plates at optimized cell density (RS4;11-BCL-2 G101V: 5000 cells/well; RS4;11-BCL-2 D103E: 7500 cells/well; RS4;11-BCL-2 D103Y: 7500 cells/well; RS4;11-BCL-2 F104L: 5000 cells/well). Plates were incubated at 37° C., with 5% CO2 for 4 h (RS4;11-BCL-2 G101V, RS4;11-BCL-2 F104L) and 24 h (RS4;11-BCL-2 D103E, RS4;11-BCL-2 D103Y), respectively. Compounds were serially diluted and added to the plates with the final concentrations of 10000, 3333.3, 1111.1, 370.4, 123.5, 41.2, 13.7, 4.6 and 1.5 nM. Plates were incubated at 37° C., with 5% CO2 for 120 h (RS4; 11-BCL-2 G101V, RS4; 11-BCL-2 F104L) and 72 h (RS4;11-BCL-2 D103E, RS4;11-BCL-2 D103Y), respectively. 20 μl MTS was added into each well and the plates were incubated at 37° C., with 5% CO2 exactly for 2 h. The absorbance was measured by a microplate reader at 490 nm. IC50 values were calculated using GraphPad Prism 8.0 software.

[2] = tested on: RS4;11-BCL-2 D103E cells; experiment: Cell proliferation assay (MTS), RS4;11-BCL-2 D103E engineered cells; conditions: Homo sapiens, 72 h, read-out: RS4, 11 BCL2-D103E IC50
How it was run: (§1)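 Inhibition of mutant BCL-2 is inferred from reduced proliferation of RS4;11 cells stably overexpressing the mutant. Compounds are tested at 1.5–10000 nM for 120 h (G101V, F104L) or 72 h (D103E, D103Y), with MTS absorbance at 490 nm used to derive IC50.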

[3] = tested on: RS4;11-BCL-2 G101V cells; experiment: Cell proliferation assay (MTS), RS4;11-BCL-2 G101V engineered cells; conditions: 120 h, read-out: RS4, 11 BCL2-G101V IC50
How it was run: as §1

[4] = tested on: Toledo cells; experiment: Cell proliferation assay (MTS), Toledo cells; conditions: 72 h
How it was run: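 Toledo cells (RPMI-1640, 10% FBS) seeded at 30000 cells/well, rested 4 h, then exposed 72 h at 37 °C, 5% CO2 to compound at nine final concentrations, 1.5–10000 nM. Viability by MTS (2 h), absorbance at 490 nm. IC50 from the concentration-response.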

| SMILES | IC50 ([1]; Homo sapiens) [nM] | IC50 [2] [nM] | IC50 ([3]; Homo sapiens) [nM] | IC50 [1] [nM] | IC50 [3] [nM] | IC50 ([4]; Homo sapiens) [nM] | IC50 [4] [nM] |
| --- | --- | --- | --- | --- | --- | --- | --- |
| Cc1cc(CN2CCN(C3CC4(CCN(c5ccc(C(=O)NS(=O)(=O)c6cnc(NC[C@H]7CC[C@](C)(O)CC7)c([N+](=O)[O-])c6)c(Oc6cnc7[nH]cc(F)c7c6)c5)CC4)C3)[C@H](c3ccccc3C(C)C)C2)ccn1 [Example 356, 2-((3-fluoro-1H-pyrrolo[2,3-b]pyridin-5-yl)oxy)-N-((6-((((1r,4r)-4-hydroxy-4-methylcyclohexyl)methyl)amino)-5-nitropyridin-3-yl)sulfonyl)-4-(2-((R)-2-(2-isopropylphenyl)-4-((2-methylpyridin-4-yl)methyl)piperazin-1-yl)-7-azaspiro[3.5]nonan-7-yl)benzamide] | 2 |  | 1 |  |  | 1 |  |
| CC(C)c1ccccc1[C@@H]1CN(Cc2ccnc(Cl)c2)CCN1C1CC2(CCN(c3ccc(C(=O)NS(=O)(=O)c4cnc(NC[C@H]5CC[C@](C)(O)CC5)c([N+](=O)[O-])c4)c(Oc4cnc5[nH]cc(F)c5c4)c3)CC2)C1 [Example 358, 4-(2-((R)-4-((2-chloropyridin-4-yl)methyl)-2-(2-isopropylphenyl)piperazin-1-yl)-7-azaspiro[3.5]nonan-7-yl)-2-((3-fluoro-1H-pyrrolo[2,3-b]pyridin-5-yl)oxy)-N-((6-((((1r,4r)-4-hydroxy-4-methylcyclohexyl)methyl)amino)-5-nitropyridin-3-yl)sulfonyl)benzamide] | 2 |  | 1 |  |  | 1 |  |
| CC(C)c1ccccc1[C@@H]1CN(Cc2ccc3c(c2)OCO3)CCN1C1CC2(CCN(c3ccc(C(=O)NS(=O)(=O)c4cnc(NC[C@H]5CC[C@](C)(O)CC5)c([N+](=O)[O-])c4)c(Oc4cnc5[nH]cc(F)c5c4)c3)CC2)C1 [Example 354, 4-(2-((R)-4-(benzo[d][1,3]dioxol-5-ylmethyl)-2-(2-isopropylphenyl)piperazin-1-yl)-7-azaspiro[3.5]nonan-7-yl)-2-((3-fluoro-1H-pyrrolo[2,3-b]pyridin-5-yl)oxy)-N-((6-((((1r,4r)-4-hydroxy-4-methylcyclohexyl)methyl)amino)-5-nitropyridin-3-yl)sulfonyl)benzamide] | 1 |  | 1 |  |  | 1 |  |
| CC(C)c1ccccc1[C@@H]1CN(Cc2ccc(Cl)cc2)CCN1C1CC2(CCN(c3ccc(C(=O)NS(=O)(=O)c4cnc(NCC5CCC(C)(O)CC5)c([N+](=O)[O-])c4)c(Oc4cnc5[nH]cc(F)c5c4)c3)CC2)C1 (stereo partly drawn) [Example 229, 4-(2-((R)-4-(4-chlorobenzyl)-2-(2-isopropylphenyl)piperazin-1-yl)-7-azaspiro[3.5]nonan-7-yl)-2-((3-fluoro-1H-pyrrolo[2,3-b]pyridin-5-yl)oxy)-N-((6-((((1r,4r)-4-hydroxy-4-methylcyclohexyl)methyl)amino)-5-nitropyridin-3-yl)sulfonyl)benzamide] |  |  |  | 1 | 1 |  | 1 |
| CC(C)c1ccccc1[C@@H]1CN(Cc2ccc(F)cc2)CCN1C1CC2(CCN(c3ccc(C(=O)NS(=O)(=O)c4cnc(NC[C@H]5CC[C@](C)(O)CC5)c([N+](=O)[O-])c4)c(Oc4cnc5[nH]cc(F)c5c4)c3)CC2)C1 [Example 232, 2-((3-fluoro-1H-pyrrolo[2,3-b]pyridin-5-yl)oxy)-4-(2-((R)-4-(4-fluorobenzyl)-2-(2-isopropylphenyl)piperazin-1-yl)-7-azaspiro[3.5]nonan-7-yl)-N-((6-((((1r,4r)-4-hydroxy-4-methylcyclohexyl)methyl)amino)-5-nitropyridin-3-yl)sulfonyl)benzamide] | 1 |  | 1 |  |  | 1 |  |

More lines, main results first:

| IC50 ([1]; Homo sapiens) [nM] | IC50 [2] [nM] | IC50 ([3]; Homo sapiens) [nM] | IC50 [1] [nM] | IC50 [3] [nM] | SMILES | IC50 ([4]; Homo sapiens) [nM] | IC50 [4] [nM] |
| --- | --- | --- | --- | --- | --- | --- | --- |
| 1 | 1 | 1 |  |  | COc1cc(CN2CCN(C3CC4(CCN(c5ccc(C(=O)NS(=O)(=O)c6cnc(NC[C@H]7CC[C@](C)(O)CC7)c([N+](=O)[O-])c6)c(Oc6cc7c(F)c[nH]c7nc6OC)c5)CC4)C3)[C@H](c3ccccc3C(C)C)C2)cc(OC)n1 [Example 62, 4-(2-((R)-4-((2,6-dimethoxypyridin-4-yl)methyl)-2-(2-isopropylphenyl)piperazin-1-yl)-7-azaspiro[3.5]nonan-7-yl)-2-((3-fluoro-6-methoxy-1H-pyrrolo[2,3-b]pyridin-5-yl)oxy)-N-((6-((((1r,4r)-4-hydroxy-4-methylcyclohexyl)methyl)amino)-5-nitropyridin-3-yl)sulfonyl)benzamide] |  |  |
| 1 |  | 1 |  |  | COc1nc2[nH]cc(F)c2cc1Oc1cc(N2CCC3(CC2)CC(N2CCN(Cc4ccc5c(c4)OCO5)C[C@H]2c2ccccc2C(C)C)C3)ccc1C(=O)NS(=O)(=O)c1cnc(NC[C@H]2CC[C@](C)(O)CC2)c([N+](=O)[O-])c1 [Example 353, 4-(2-((R)-4-(benzo[d][1,3]dioxol-5-ylmethyl)-2-(2-isopropylphenyl)piperazin-1-yl)-7-azaspiro [3.5]nonan-7-yl)-2-((3-fluoro-6-methoxy-1H-pyrrolo[2,3-b]pyridin-5-yl)oxy)-N-((6-((((1r,4r)-4-hydroxy-4-methylcyclohexyl)methyl)amino)-5-nitropyridin-3-yl)sulfonyl)benzamide] | 1 |  |
| 1 | 1 | 1 |  |  | COc1cc(CN2CCN(C3CC4(CCN(c5ccc(C(=O)NS(=O)(=O)c6cnc(NC[C@H]7CC[C@](C)(O)CC7)c([N+](=O)[O-])c6)c(Oc6cc7c(F)c[nH]c7nc6OC)c5)CC4)C3)[C@H](c3ccccc3C(C)C)C2)cc(F)n1 [Example 53, 2-((3-fluoro-6-methoxy-1H-pyrrolo[2,3-b]pyridin-5-yl)oxy)-4-(2-((R)-4-((2-fluoro-6-methoxypyridin-4-yl)methyl)-2-(2-isopropylphenyl)piperazin-1-yl)-7-azaspiro[3.5]nonan-7-yl)-N-((6-((((1r,4r)-4-hydroxy-4-methylcyclohexyl)methyl)amino)-5-nitropyridin-3-yl)sulfonyl)benzamide] |  |  |
| 1 |  | 1 |  |  | CCOc1nc2[nH]cc(F)c2cc1Oc1cc(N2CCC3(CC2)CC(N2CCN(Cc4ccc(C5CC5)c(OC)c4)C[C@H]2c2ccccc2C(C)C)C3)ccc1C(=O)NS(=O)(=O)c1cnc(NC[C@H]2CC[C@](C)(O)CC2)c([N+](=O)[O-])c1 [Example 6, 4-(2-((R)-4-(4-cyclopropyl-3-methoxybenzyl)-2-(2-isopropylphenyl)piperazin-1-yl)-7-azaspiro[3.5]nonan-7-yl)-2-((6-ethoxy-3-fluoro-1H-pyrrolo[2,3-b]pyridin-5-yl)oxy)-N-((6-((((1r,4r)-4-hydroxy-4-methylcyclohexyl)methyl)amino)-5-nitropyridin-3-yl)sulfonyl)benzamide] | 1 |  |
| 1 |  | 1 |  |  | CCOc1nc2[nH]cc(F)c2cc1Oc1cc(N2CCC3(CC2)CC(N2CCN(Cc4ccc(OC)c5oc(C)cc45)C[C@H]2c2ccccc2C(C)C)C3)ccc1C(=O)NS(=O)(=O)c1cnc(NC[C@H]2CC[C@](C)(O)CC2)c([N+](=O)[O-])c1 [Example 14, 2-((6-ethoxy-3-fluoro-1H-pyrrolo[2,3-b]pyridin-5-yl)oxy)-N-((6-((((1r,4r)-4-hydroxy-4-methylcyclohexyl)methyl)amino)-5-nitropyridin-3-yl)sulfonyl)-4-(2-((R)-2-(2-isopropylphenyl)-4-((7-methoxy-2-methylbenzofuran-4-yl)methyl)piperazin-1-yl)-7-azaspiro[3.5]nonan-7-yl)benzamide] | 1 |  |
